Measurements published in US20080214606A1, “Methods for the Identification and Use of Compounds Suitable for the Treatment of Drug Resistant Cancer Cells” (The Government of the United States of America as …, priority 2004, published 2008).

How the values were obtained:
ABCD1 = target: T1, ABCD1 (Homo sapiens, UniProt P33897); assay: Correlation of ABCD1 expression with drug sensitivity across the NCI-60; assay type: cell-based; settings: Pearson correlation of ABCD1 expression with sensitivity of the 60 cell lines; 1429 compounds; inverse, p < 0.0001
T1 construct: profiled in 60 diverse cancer cell lines (the NCI-60) using real-time RT-PCR; endogenous in cells; host or cells: NCI-60 human cancer cell lines
Procedure: Expression levels are measured by real-time quantitative RT-PCR using the LightCycler RNA Amplification SYBR Green kit and a LightCycler machine (Roche Biochemicals, Indianapolis, Ind.). […] When possible, the amplicons are designed to encompass exon-intron boundaries to avoid amplification of genomic DNA. Since the Syber Green assay detects accumulation of double stranded DNA, primers are selected (from a battery consisting of about 200 primers) that amplified a single product of the correct size.
During PCR amplification, fluorescence emission is measured and recorded in real time by the LightCycler. Crossing point values are calculated, using the LightCycler software package, by the Fit Points analysis method, with baseline fluorescence set at 1. The SyberGreen assay measures accumulation of double-stranded products, and the appearance of primer dimers limits quantitation at high cycle numbers. The specificity of amplified products is verified by melting-curve analysis and agarose gel electrophoresis (not shown). The raw results are expressed as number of cycles to reach the crossing point. If the desired product is not detected, the corresponding value is adjusted to crossing points indicating no expression. To assess the contribution of experimental artifacts, selected cell lines are assessed in replicate.

ABCB1 = ABCB1 (Homo sapiens, UniProt P08183); assay: Correlation of ABCB1 expression with drug sensitivity across the NCI-60
Procedure: Expression levels are measured by real-time quantitative RT-PCR using the LightCycler RNA Amplification SYBR Green kit and a LightCycler machine (Roche Biochemicals, Indianapolis, Ind.). Specific oligonucleotide probes are designed for each of the ABC transporters using DNAStar Primer Select (DNASTAR Inc.), and they may be synthesized at Lofstrand Laboratories (Gaithersburg, Md.). When possible, the amplicons are designed to encompass exon-intron boundaries to avoid amplification of genomic DNA. Since the Syber Green assay detects accumulation of double stranded DNA, primers are selected (from a battery consisting of about 200 primers) that amplified a single product of the correct size.
RT-PCR is carried out on 150 ng total RNA, in the presence of 250 nM specific primers. Following reverse transcription (20 min at 50° C.), the PCR reaction consists of 45 cycles of denaturation (15 sec at 95° C.), annealing (30 sec at 58° C.), and elongation (30 sec at 72° C.). No-template (water) reaction mixtures are prepared as negative controls.
During PCR amplification, fluorescence emission is measured and recorded in real time by the LightCycler. Crossing point values are calculated, using the LightCycler software package, by the Fit Points analysis method, with baseline fluorescence set at 1. The SyberGreen assay measures accumulation of double-stranded products, and the appearance of primer dimers limits quantitation at high cycle numbers. […] The raw results are expressed as number of cycles to reach the crossing point. If the desired product is not detected, the corresponding value is adjusted to crossing points indicating no expression. To assess the contribution of experimental artifacts, selected cell lines are assessed in replicate.
Both sets are available at http://discover.nci.nih.gov. The two are combined to form a joint dataset that includes 1429 compounds.
To determine quantitatively how well the 47 genes cluster the cell lines by their tissues of origin, a statistical method is employed wherein the kappa statistic is used to indicate how well the observed clusters correspond to the nine tissue-of-origin classifications. […] To control the overall false type 1 error rate, both a step-down procedure (Westfall and Young, 1993, Resampling-Based Multiple Testing: Examples and Methods for p-value Adjustment (New York: Wiley)) and a step-up procedure (Reiner et al., 2003, Bioinformatics 19:368-375) were employed to adjust for multiple testing of all 47 genes simultaneously. In the Benjamini-Hochberg procedure the p-values are computed in the standard way by permutation, assuming that all distributions are exchangeable: the number of values in the permuted data with correlations over a threshold, divided by the number of compounds and by the number of permutations. In this analysis, the False Discovery Rate (q-value) at which each compound would be declared was calculated using the step-up procedure for positively correlated test statistics (again true because all correlations being compared are computed against the same ABC gene): in this procedure the first q-value for the largest correlation is the Bonferroni-corrected p-value for that gene; then further q-values are calculated as qj=max(pj*1429/j, qj-1). This procedure limits the expected proportion of false positives in the list 1, . . . , j to at most qj.

Chain of ABCB1 (P08183 whole entry): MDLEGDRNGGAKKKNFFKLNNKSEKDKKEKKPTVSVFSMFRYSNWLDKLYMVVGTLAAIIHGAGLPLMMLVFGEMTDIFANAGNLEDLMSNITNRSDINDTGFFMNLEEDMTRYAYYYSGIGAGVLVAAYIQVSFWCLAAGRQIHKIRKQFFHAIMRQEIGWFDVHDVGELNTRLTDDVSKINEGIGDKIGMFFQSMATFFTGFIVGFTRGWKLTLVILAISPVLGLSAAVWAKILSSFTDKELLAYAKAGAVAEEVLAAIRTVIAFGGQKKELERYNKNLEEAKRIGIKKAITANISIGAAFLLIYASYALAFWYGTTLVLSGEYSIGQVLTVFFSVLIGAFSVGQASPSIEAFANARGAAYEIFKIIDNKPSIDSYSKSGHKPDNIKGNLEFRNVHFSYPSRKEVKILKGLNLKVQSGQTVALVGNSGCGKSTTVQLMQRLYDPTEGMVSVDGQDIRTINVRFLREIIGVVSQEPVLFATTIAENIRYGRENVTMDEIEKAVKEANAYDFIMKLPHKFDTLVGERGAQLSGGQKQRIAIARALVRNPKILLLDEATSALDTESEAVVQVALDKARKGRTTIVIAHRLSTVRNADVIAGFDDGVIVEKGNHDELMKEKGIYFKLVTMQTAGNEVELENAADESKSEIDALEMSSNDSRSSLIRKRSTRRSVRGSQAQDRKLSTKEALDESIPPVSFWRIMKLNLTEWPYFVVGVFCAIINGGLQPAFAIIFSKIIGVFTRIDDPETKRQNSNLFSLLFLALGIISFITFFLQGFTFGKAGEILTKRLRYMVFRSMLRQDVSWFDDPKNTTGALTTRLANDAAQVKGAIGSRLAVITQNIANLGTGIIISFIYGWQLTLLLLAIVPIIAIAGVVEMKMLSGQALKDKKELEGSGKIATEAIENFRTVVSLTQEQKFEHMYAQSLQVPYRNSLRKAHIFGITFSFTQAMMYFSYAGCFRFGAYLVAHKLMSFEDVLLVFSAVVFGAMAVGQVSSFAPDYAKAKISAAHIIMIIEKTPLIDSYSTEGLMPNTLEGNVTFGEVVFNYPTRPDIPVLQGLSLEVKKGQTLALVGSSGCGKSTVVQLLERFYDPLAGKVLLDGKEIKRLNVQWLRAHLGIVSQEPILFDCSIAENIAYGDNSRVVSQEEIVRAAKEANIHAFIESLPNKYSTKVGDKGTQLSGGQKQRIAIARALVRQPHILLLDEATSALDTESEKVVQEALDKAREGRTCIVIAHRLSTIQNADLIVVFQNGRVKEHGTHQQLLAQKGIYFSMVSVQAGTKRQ
T1 sequence (P33897 whole entry): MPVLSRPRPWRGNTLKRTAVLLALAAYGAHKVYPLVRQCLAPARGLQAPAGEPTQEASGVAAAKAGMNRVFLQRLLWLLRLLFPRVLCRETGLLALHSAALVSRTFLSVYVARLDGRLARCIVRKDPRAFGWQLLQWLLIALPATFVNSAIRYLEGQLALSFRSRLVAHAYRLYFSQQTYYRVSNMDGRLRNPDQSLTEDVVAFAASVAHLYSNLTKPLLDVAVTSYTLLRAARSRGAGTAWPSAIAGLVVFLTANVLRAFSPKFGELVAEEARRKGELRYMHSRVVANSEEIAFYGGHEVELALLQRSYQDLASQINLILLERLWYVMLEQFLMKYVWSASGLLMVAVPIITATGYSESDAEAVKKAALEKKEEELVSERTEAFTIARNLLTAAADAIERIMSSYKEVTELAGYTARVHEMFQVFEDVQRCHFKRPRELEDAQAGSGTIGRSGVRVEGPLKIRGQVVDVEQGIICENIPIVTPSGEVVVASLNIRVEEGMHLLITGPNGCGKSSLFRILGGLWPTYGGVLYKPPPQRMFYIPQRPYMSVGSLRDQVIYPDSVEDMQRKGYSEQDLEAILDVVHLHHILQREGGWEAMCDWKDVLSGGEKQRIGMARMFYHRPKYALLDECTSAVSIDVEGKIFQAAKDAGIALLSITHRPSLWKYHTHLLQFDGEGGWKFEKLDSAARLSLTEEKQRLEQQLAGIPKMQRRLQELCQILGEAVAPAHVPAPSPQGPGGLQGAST

c1ccc2c(c1)Nc1cccc3c1c-2nc1ccccc13 [NSC 670692]
Correlation (ABCD1): −0.4001

CN(C)CCCNc1ccc2nnn3c4ccc(O)cc4c(=O)c1c23 [NSC 645830]
Correlation (ABCD1): −0.4258

COc1ccc2c(c1)-c1nn(CCCN(C)C)c3ccc([N+](=O)[O-])c(c13)N2 [NSC 627168]
Correlation (ABCD1): −0.4599

CCN(CC)CCCNc1ccc2nnn3c4ccc(O)cc4c(=O)c1c23 [NSC 645814]
Correlation (ABCD1): −0.4346

COc1ccc2[nH]c3c(C)c4ccncc4c(C)c3c2c1 [NSC 69187]
Correlation (ABCD1): −0.5711

Cc1c2ccncc2c(C)c2c1[nH]c1ccc(OCCN(C)C)cc12 [NSC 338258]
Correlation (ABCD1): −0.5453

CCN(CC)CCn1ccc(=O)c2cc3c(=O)ccn(CCN(CC)CC)c3c(C)c21 [NSC 645161]
Correlation (ABCD1): −0.5134

Cc1c2ccncc2c(C)c2c1[nH]c1ccccc12 [NSC 71795]
Correlation (ABCD1): −0.4642

CCN(CC)CCNc1ccc2ncn3c4ccc(OC)cc4c(=O)c1c23 [NSC 645812]
Correlation (ABCD1): −0.4825

CN(C)CCCNc1ccc2c(=O)n(CCN(C)C)c(=O)n3c4ccccc4c(=O)c1c23 [NSC 687308]
Correlation (ABCD1): −0.4236

OCCOc1ccc(-c2cc(-c3ccccn3)nc(-c3ccccn3)c2)cc1 [NSC 640499]
Correlation (ABCD1): −0.4694

COc1c(OC(C)=O)c(OC(C)=O)cc2c1-c1ccc(SC)c(=O)cc1C(NC(C)=O)CC2 (stereo not drawn) [NSC 374980]
Correlation (ABCB1): −0.5590

CCC1=NC(N/N=C/c2ccccc2O)=N/C1=C\c1ccccc1O [NSC 697678]
Correlation of antiproliferative activity with ABCB1 expression (ABCB1): 0.4314

CCCOc1ccc(-c2nc(-c3ccc(N=Cc4ccc(N(CCOS(C)(=O)=O)CCOS(C)(=O)=O)cc4C)cc3)cs2)cc1 [NSC281818]
Pearson's Correlation Coeff (ABCB1): 0.2476

COc1ccc2nc3c(C(=O)NCCN(C)C)cccc3cc2c1.Cl [NSC 617959]
Correlation of antiproliferative activity with ABCB1 expression (ABCB1): 0.3586

CCc1nc(N)nc(N)c1-c1ccc(Cl)c(N=NN(C)C)c1 [NSC330465]
Pearson's Correlation Coeff (ABCB1): 0.2872

C[N+]1(C)C/C(=C\C=C\c2ccccc2)C(=O)/C(=C/C=C/c2ccccc2)C1.[I-] [NSC 636679]
Correlation (ABCB1): −0.5530

O=[N+]([O-])C(=C\c1cccs1)/C(=C/c1cccs1)[N+](=O)[O-] [NSC693131]
Pearson's Correlation Coeff (ABCB1): 0.2788

O=[Se](=O)c1ccccc1.O=[Se](=O)c1ccccc1.[Cu] [NSC 626670]
Correlation of antiproliferative activity with ABCB1 expression (ABCB1): 0.4177

COc1ccc(O)c(/C=N/NC(=S)N2CCCCC2)c1 [NSC689529]
Pearson's Correlation Coeff (ABCB1): 0.3465

CN(Cc1cnc2nc(N)nc(N)c2n1)c1ccc(C(=O)N[C@@H](CCC(=O)O)C(=O)O)cc1 [methotrexate, reference compound]
Relationship between drug sensitivity and ABCB1 expression (in words) (ABCB1): non-correlated or positively correlated

O=C(CCc1nnc2s/c(=C\c3ccc4c(c3)OCO4)c(=O)n12)Nc1cc(Cl)ccc1Cl [NSC 635543]
Correlation of antiproliferative activity with ABCB1 expression (ABCB1): 0.3514

COc1ccc(C2COc3cc(O)c(O)cc3C2)cc1 (stereo not drawn) [NSC600285]
Pearson's Correlation Coeff (ABCB1): 0.2935

NC(=O)NO [hydroxyurea, reference compound]
Relationship between drug sensitivity and ABCB1 expression (in words) (ABCB1): non-correlated or positively correlated

Cc1ccc(C2COc3cc(O)c(O)cc3C2)cc1 (stereo not drawn) [NSC600286]
Pearson's Correlation Coeff (ABCB1): 0.2177

Nc1ncnc2c1nc(Cl)n2[C@@H]1O[C@@H]2COP(=O)(O)O[C@H]2[C@H]1O [NSC284751]
Pearson's Correlation Coeff (ABCB1): 0.2759

O=C1Sc2sc(=S)sc2SC1c1ccccc1 (stereo not drawn) [NSC 627452]
Correlation of antiproliferative activity with ABCB1 expression (ABCB1): 0.3534

CC(C)=CCC[C@@H](C)c1c2ncc[nH]c-2c(C)c(=O)c1O [NSC697135]
Correlation of antiproliferative activity with ABCB1 expression (ABCB1): 0.4249 | Pearson's Correlation Coeff (ABCB1): 0.4052

CCOC(=O)NC1CC2CCC1(OC)C=C2C (stereo not drawn) [NSC 617278]
Correlation of antiproliferative activity with ABCB1 expression (ABCB1): 0.424

CCc1nc(N)nc(N)c1-c1ccc2nn(-c3ccccc3)[n+]([O-])c2c1 [NSC382054]
Pearson's Correlation Coeff (ABCB1): 0.3151

O=c1[nH]cc(F)c(=O)[nH]1 [5-fluorouracil, reference compound]
Relationship between drug sensitivity and ABCB1 expression (in words) (ABCB1): non-correlated or positively correlated

O=C1c2ccccc2C(=O)c2c1nc1ccccc1c2-c1cncc(-c2c3c(nc4ccccc24)C(=O)c2ccccc2C3=O)c1 [NSC694490]
Pearson's Correlation Coeff (ABCB1): 0.2438

C=C1C(=O)O[C@@H]2C[C@H]1CC[C@]1(C)O[C@H]1CC/C(C)=C/CC[C@]2(C)O [NSC285706]
Pearson's Correlation Coeff (ABCB1): 0.3654

O=c1cc(-c2cccc(OCc3ccccc3)c2)[nH]c2cc3c(cc12)OCO3 [NSC657279]
Pearson's Correlation Coeff (ABCB1): 0.2253

CC(C)=CCC[C@@H](C)C1=C(O)C(Nc2ccccc2Cl)=C(C)C(=O)C1=O [NSC 697132]
Correlation of antiproliferative activity with ABCB1 expression (ABCB1): 0.3558

NC(=S)NN=Cc1ncccc1O [NSC95678]
Pearson's Correlation Coeff (ABCB1): 0.2475

CCc1nc(N)nc(N)c1-c1ccc(NC)c([N+](=O)[O-])c1 [NSC382034]
Pearson's Correlation Coeff (ABCB1): 0.3302

CC(C)=CCC[C@@H](C)C1=C(Nc2ccccc2F)C(=O)C(C)=C(O)C1=O [NSC697131]
Correlation of antiproliferative activity with ABCB1 expression (ABCB1): 0.3522 | Pearson's Correlation Coeff (ABCB1): 0.3514

C=C(C)[C@@H]1CCc2c(O)c(O)c(=O)cc(C)c2C1 [NSC 310618]
Correlation of antiproliferative activity with ABCB1 expression (ABCB1): 0.3698

Cc1c2cnccc2c(C)c2c1c1ccccc1n2CCOC(=O)c1ccccc1 [NSC163443]
Pearson's Correlation Coeff (ABCB1): 0.2891

CC(C)=CCC[C@@H](C)C1=C(O)C(=O)C(C)=C(NC(C)c2ccccc2)C1=O (stereo partly drawn) [NSC697137]
Correlation of antiproliferative activity with ABCB1 expression (ABCB1): 0.4295 | Pearson's Correlation Coeff (ABCB1): 0.3828

COc1cccc2c1C(=O)c1c(O)c3c(c(O)c1C2=O)C[C@@](O)(C(=O)CO)C[C@@H]3O[C@H]1C[C@H](N)[C@H](O)[C@H](C)O1 [doxorubicin, reference compound]
Relationship between drug sensitivity and ABCB1 expression (in words) (ABCB1): striking inverse correlations

CNC1=C(C)C(=O)C(O)=C([C@H](C)CCC=C(C)C)C1=O [NSC697128]
Correlation of antiproliferative activity with ABCB1 expression (ABCB1): 0.4349 | Pearson's Correlation Coeff (ABCB1): 0.4568

CCCCc1[nH]ccc2c(C)c3nc4ccccc4c3cc12 [NSC142055]
Pearson's Correlation Coeff (ABCB1): 0.3935

N#Cc1c(N2CCN(c3ccc([N+](=O)[O-])cc3)CC2)[n+](=O)c2ccc(Cl)cc2n1[O-] [NSC688493]
Pearson's Correlation Coeff (ABCB1): 0.2012

COc1c(C)c(C/C=C(\C)CCCCO[Si](c2ccccc2)(c2ccccc2)C(C)(C)C)c(OC)c(OC)c1OC [NSC 687141]
Correlation of antiproliferative activity with ABCB1 expression (ABCB1): 0.3774

CC(C)=CCCC(C)c1c(O)c(O)c(C)c2nc3ccccc3nc12 (stereo not drawn) [NSC697120]
Correlation of antiproliferative activity with ABCB1 expression (ABCB1): 0.4435 | Pearson's Correlation Coeff (ABCB1): 0.4167

Cc1c2ccncc2c(C)c2c1[nH]c1ccc(Cl)cc12 [NSC176326]
Pearson's Correlation Coeff (ABCB1): 0.3552

CC[C@@]1(O)C[C@H](O[C@H]2C[C@H](N(C)C)[C@H](O)[C@H](C)O2)c2c(cc3c(c2O)C(=O)c2c(O)ccc(O)c2C3=O)[C@H]1C(=O)OC [NSC267229]
Pearson's Correlation Coeff (ABCB1): 0.3505

CC(C)=CCC[C@@H](C)C1=C(N)C(=O)C(C)=C(O)C1=O [NSC 697124]
Correlation of antiproliferative activity with ABCB1 expression (ABCB1): 0.4636

CN(C)c1ccc(/C=C2\C[N+](C)(C)C/C(=C\c3ccc(N(C)C)cc3)C2=O)cc1.[I-] [NSC 618757]
Correlation (ABCB1): −0.6081

Cl.Oc1c(CN2CCCC2)ccc2cccnc12 [NSC693871]
Correlation of antiproliferative activity with ABCB1 expression (ABCB1): 0.6811 | Pearson's Correlation Coeff (ABCB1): 0.6160

O=[N+]([O-])c1ccc(O)c(/C=N/NC(=S)N2CCCCC2)c1 [NSC689530]
Pearson's Correlation Coeff (ABCB1): 0.3398

CN(C)c1nc(N(C)C)nc(N(C)C)n1 [NSC 13875]
Correlation of antiproliferative activity with ABCB1 expression (ABCB1): 0.4856

CCc1c(CNc2ccc(C(=O)NC(CC(=O)O)C(=O)O)cc2)ccc2nc(N)nc(N)c12 (stereo not drawn) [NSC184692]
Pearson's Correlation Coeff (ABCB1): 0.2971

Cc1cc(C)n(-c2nc3ccccc3c(=O)[nH]2)n1 [NSC691081]
Pearson's Correlation Coeff (ABCB1): 0.4305

CCc1nc(N)nc(N)c1-c1ccc(NCCc2ccccc2)c([N+](=O)[O-])c1 [NSC382049]
Pearson's Correlation Coeff (ABCB1): 0.3279
